Data: publication PMC3286601 (Biochemistry, 2012)
Read-outs that look alike come from different tables or passages of the source.

Assays:
[1] = molecular target: T1, wild-type Pseudomonas sp. strain CBS3 4-HB-CoA thioesterase (Pseudomonas sp., UniProt P56653); assay: Steady-state product inhibition of thioesterase-catalyzed hydrolysis of 4-HB-CoA; assay type: biochemical
T1 sequence (P56653 1-141): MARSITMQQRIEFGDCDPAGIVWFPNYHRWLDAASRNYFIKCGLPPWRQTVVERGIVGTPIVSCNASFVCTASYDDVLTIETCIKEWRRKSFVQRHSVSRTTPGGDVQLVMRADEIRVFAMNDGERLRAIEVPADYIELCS

[2] = molecular target: T1, wild-type Pseudomonas sp. strain CBS3 4-HB-CoA thioesterase; assay: Ligand binding to wild-type thioesterase by stopped-flow fluorescence quenching; settings: for kobs (apparent pseudo-first order binding rate constant): 0.54 µM thioesterase; for koff: read-out: koff (dissociation rate constant); for kon: read-out: kon (association rate constant)
[3] = molecular target: D17N thioesterase; settings: inert D17N thioesterase complex, steady-state fluorescence quenching; ref [5]; cited from earlier work
[4] = molecular target: T1, wild-type Pseudomonas sp. strain CBS3 4-HB-CoA thioesterase; assay: Steady-state kinetic constants; assay type: biochemical; settings: substrate hydrolysis, pH 7.5, 25 °C
[5] = molecular target: T1, wild-type Pseudomonas sp. strain CBS3 4-HB-CoA thioesterase; assay: kcat pH rate profiles in H2O and D2O, solvent kinetic isotope effect on kcat; assay type: biochemical; settings: for C1 (pH independent kcat plateau) / C2 (pH independent kcat plateau) / first break in kcat pH profile / second break in kcat pH profile: fit to equation 4
[6] = molecular target: T1, wild-type Pseudomonas sp. strain CBS3 4-HB-CoA thioesterase; assay type: biochemical
[7] = molecular target: T1, wild-type Pseudomonas sp. strain CBS3 4-HB-CoA thioesterase; assay: Steady-state multiple-turnover time courses; assay type: biochemical
[8] = conjugate acid of the CoA thiolate anion leaving group; source not stated; cited from earlier work
[9] = molecular target: T1, wild-type Pseudomonas sp. strain CBS3 4-HB-CoA thioesterase; assay type: biochemical; remark: listed apart in the source

## O=C(O)c1ccc(O)cc1 [4-HB, 4-hydroxybenzoate]
[1]
  Ki: 1200 ± 200 µM

## CC(C)(COP(=O)(O)OP(=O)(O)OC[C@H]1O[C@@H](n2cnc3c(N)ncnc32)[C@H](O)[C@@H]1OP(=O)(O)O)[C@@H](O)C(=O)NCCC(=O)NCCSC(=O)c1ccc(O)cc1 [4-HB-CoA, 4-hydroxybenzoyl-CoA]
[2]
  Kd: 0.2 µM
  koff: 13 ± 5 s⁻¹
  kon: 6.5e+07 ± 2e+06 M⁻¹ s⁻¹
[2]; 5.0 µM 4-HB-CoA (b38 prints 4.0 µM), pH 7.5, 25 °C
  kobs (apparent pseudo-first order binding rate constant): 280 ± 30 s⁻¹
[2]; summary value in Conclusions
  substrate-binding rate k1: ~ 70 µM^−1s^−1
[3]
  Kd: 0.14 µM
[4]
  steady-state kcat: 18 s⁻¹
[5]; H2O/D2O
  pH independent isotope effect from ratio of C1 values: 3.8
  pH independent isotope effect from ratio of C2 values: 3.7
[5]; buffered D2O
  C1 (pH independent kcat plateau): 1.3 ± 0.2
  C2 (pH independent kcat plateau): 15 ± 1
  first break in kcat pH profile: 5.1 ± 0.1
  second break in kcat pH profile: 8.0 ± 0.1
[5]; buffered H2O
  C1 (pH independent kcat plateau): 5.0 ± 0.1
  C2 (pH independent kcat plateau): 55 ± 4
  first break in kcat pH profile: 5.15 ± 0.09
  second break in kcat pH profile: 7.70 ± 0.08
[5]; pH independent
  D2O solvent kinetic isotope effect (SKIE) on kcat: 3.7–3.8

## CC(C)(COP(=O)(O)OP(=O)(O)OC[C@H]1O[C@@H](n2cnc3c(N)ncnc32)[C@H](O)[C@@H]1OP(=O)(O)O)[C@@H](O)C(=O)NCCC(=O)NCCSCC(=O)c1ccc(O)cc1 [4-HP-CoA, 4-hydroxyphenacyl-CoA]
[2]
  Kd: 0.33 µM
  koff: 20 ± 5 s⁻¹
  kon: 5.9e+07 ± 1e+06 M⁻¹ s⁻¹
[2]; 5.3 µM 4-HP-CoA, 50 mM K+HEPES pH 7.5, 25 °C
  kobs (apparent pseudo-first order binding rate constant): 350 ± 4 s⁻¹

## CC(C)(COP(=O)(O)OP(=O)(O)OC[C@H]1O[C@@H](n2cnc3c(N)ncnc32)[C@H](O)[C@@H]1OP(=O)(O)O)[C@@H](O)C(=O)NCCC(=O)NCCS [CoA, coenzyme A]
[6]
  Kd: 300 µM
[7]
  Kd: 300 µM
[1]
  Ki: 250 ± 70 µM
[1]; noncompetitive inhibition of 4-HB-CoA hydrolysis, pH 7.5, 25 °C
  Kii (intercept inhibition constant): 900 ± 300 µM
[8]
  pKa of the conjugate acid: 9.7
[9]
  Kd: 300 µM
